Experimental findings from patent US20120165319A1, “INHIBITORS OF INTERLEUKIN-1 BETA CONVERTING ENZYME” (VERTEX PHARMACEUTICALS INCORPORATED, priority 1995, published 2012) are described below.

The target of the first assay is T1, ICE (Homo sapiens, UniProt P29466).
T1 sequence (P29466 120-297 limits assumed): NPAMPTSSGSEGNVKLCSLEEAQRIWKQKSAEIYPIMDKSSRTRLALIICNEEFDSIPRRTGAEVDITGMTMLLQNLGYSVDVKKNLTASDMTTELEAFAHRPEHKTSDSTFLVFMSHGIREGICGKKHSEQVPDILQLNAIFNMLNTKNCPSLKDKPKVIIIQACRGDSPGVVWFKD
T1 sequence (P29466 317-404 limits assumed): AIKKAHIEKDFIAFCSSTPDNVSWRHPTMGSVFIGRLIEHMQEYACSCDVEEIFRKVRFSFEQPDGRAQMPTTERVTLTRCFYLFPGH
Description: Enzyme assay with UV-visible substrate (visible ICE assay, Succinyl-Tyr-Val-Ala-Asp-pNitroanilide). The format is biochemical. Conditions: Table 5. As for the experimental part:
1. Enzyme Assay with Uv-Visible Substrate
This assay is run using an Succinyl-Tyr-Val-Ala-Asp-pNitroanilide substrate. Synthesis of analogous substrates is described by L. A. Reiter (Int. J. Peptide Protein Res. 12, 87-96 (1994)). The assay mixture contains:
The visible ICE assay is run in a 96-well microtiter plate. Buffer, ICE and DMSO (if inhibitor is present) are added to the wells in the order listed. The components are left to incubate at room temperature for 15 minutes starting at the time that all components are present in all wells. The microtiter plate reader is set to incubate at 37° C. After the 15 minute incubation, substrate is added directly to the wells and the reaction is monitored by following the release of the chromophore (pNA) at 405-603 nm at 37° C. for 20 minutes. A linear fit of the data is performed and the rate is calculated in mOD/min. DMSO is only present during experiments involving inhibitors, buffer is used to make up the volume to 100 μl in the other experiments.
For determination of enzyme inhibition constants (Ki) or the mode of inhibition (competitive, uncompetitive or noncompetitive), the rate data determined in the enzyme assays at varying inhibitor concentrations are computer-fit to standard enzyme kinetic equations (see I. H. Segel, Enzyme Kinetics, Wiley-Interscience, 1975).
Take `N[C@H]1CCC(=O)N2CCC[C@@H](C(=O)N[C@H](C=O)CC(=O)O)N2C1=O` [Compound 429]: the inhibitory constant (Ki) came to 7000 nM.

With `CC(=O)N1C[C@H](NC(=O)c2sc(C)nc2C)C(=O)N(CC(=O)N[C@H](C=O)CC(=O)O)c2ccccc21` [Compound 625], the Ki came out at 105 nM.

`O=C[C@H](CC(=O)O)NC(=O)[C@@H]1CCCN2C(=O)CC[C@H](NC(=O)c3ccc(O)c(CN4CCOCC4)c3)C(=O)N12` [Compound 477]: the inhibition constant (Ki) came to 60 nM. In turn, `CC(=O)N1C[C@H](NC(=O)O[C@H]2CCOC2)C(=O)N(CC(=O)N[C@H](C=O)CC(=O)O)c2ccccc21` [Compound 634] returned a Ki of 1400 nM. On the same count and under the same terms, for `O=C[C@H](CC(=O)O)NC(=O)[C@@H]1CCCN2C(=O)CC[C@H](NC(=O)/C=C/c3ccncc3)C(=O)N12` [Compound 472] the value was 140 nM. Same read-out and setting: as for `CC(=O)N1C[C@H](NS(=O)(=O)c2ccccc2)C(=O)N(CC(=O)N[C@H](C=O)CC(=O)O)c2ccccc21` [Compound 629], the figure is 230 nM; as for `Cc1cccc(CC(=O)N2C[C@H](NC(=O)c3ccccc3)C(=O)N(CC(=O)N[C@H](C=O)CC(=O)O)c3ccccc32)c1` [Compound 605t, (3S)-3-[(3S)-2-Oxo-3-benzoylamino-5-(3-methylphenylacetyl)-2,3,4,5-tetrahydro-1H-1,5-benzodiazepin-1-acetylamino]-4-oxo-butyric acid], 33 nM; as for `CC(=O)N1C[C@H](NC(=O)Cc2ccccc2)C(=O)N(CC(=O)N[C@H](C=O)CC(=O)O)c2ccccc21` [Compound 630], 270 nM. `CC(=O)N1C[C@H](NC(=O)c2cccc(O)c2C)C(=O)N(CC(=O)N[C@H](C=O)CC(=O)O)c2ccccc21` [Compound 626] gave a Ki of 260 nM. The same measure, in the same setting: as for `CC(=O)N1C[C@H](NC(=O)/C=C/c2ccccc2)C(=O)N(CC(=O)N[C@H](C=O)CC(=O)O)c2ccccc21` [Compound 632], the figure is 148 nM; as for `C[S+](CC(=O)[C@H](CC(=O)O)NC(=O)[C@@H]1CCCN2C(=O)CC[C@H](NC(=O)c3ccccc3)C(=O)N12)Cc1ccccc1Cl` (some centres unmarked) [Compound 281], 50 nM; as for `CC(=O)N1C[C@H](NC(=O)c2ccsc2)C(=O)N(CC(=O)N[C@H](C=O)CC(=O)O)c2ccccc21` [Compound 624], 300 nM.

The assay is the same for the next values; noted with them: Table 17.
`CO/N=C/[C@H](CC(=O)O)NC(=O)[C@@H]1CCCN2C(=O)CC[C@H](NC(=O)c3ccc(OC)cc3)C(=O)N12` [Compound 308c, [3S(1S,9S)3-(9-(4-Methoxybenzoyl)amino-6,10-dioxo-1,2,3,4,7,8,9,10-octahydro-6H-pyridazino[1,2-a][1,2]diazepine-1-carboxamido)-amino]-4-oxobutanoic acid, O-methyl oxime]: the Ki was 3000 nM. `O=C[C@H](CC(=O)O)NC(=O)[C@@H]1CCCN2C(=O)CCN(NC(=O)C(=O)Nc3ccc(Cl)cc3)C(=O)N12` [Compound 1120] registered a Ki of 95 nM.

For `O=C[C@H](CC(=O)O)NC(=O)[C@@H]1CCCN2C(=O)CCN(NC(=O)CC3CCCCC3)C(=O)N12` [Compound 1118], the inhibition constant Ki amounted to 380 nM. Same read-out and setting: for `COc1ccc(C(=O)C(=O)NN2CCC(=O)N3CCC[C@@H](C(=O)N[C@H](C=O)CC(=O)O)N3C2=O)cc1` [Compound 1110] the value was 45 nM; for `CC(=O)N1C[C@H](NC(=O)/C=C/c2ccc3c(c2)OCO3)C(=O)N(CC(=O)N[C@H](C=O)CC(=O)O)c2ccccc21` [Compound 708], 140 nM; for `O=C[C@H](CC(=O)O)NC(=O)[C@@H]1CCCN2C(=O)CCN(NC(=O)CCc3ccc(Cl)cc3)C(=O)N12` [Compound 1113], 290 nM. On the same count and under the same terms, for `COc1ccc(C(=O)N[C@H]2CCC(=O)N3CCC[C@@H](C(=O)N[C@H](/C=N/OCc4ccccc4)CC(=O)O)N3C2=O)cc1` [Compound 308d, [3S(1S,9S)3-(9-(4-Methoxybenzoyl)amino-6,10-dioxo-1,2,3,4,7,8,9,10-octahydro-6H-pyridazino[1,2-a][1,2]diazepine-1-carboxamido)-amino]-4-oxobutanoic acid, O-benzyl oxime] the value was 3000 nM; for `CC(=O)NCC(=O)N1C[C@H](NC(=O)c2cccc3ccccc23)C(=O)N(CC(=O)N[C@H](C=O)CC(=O)O)c2ccccc21` [Compound 645, (3S)-3-[(3S)-2-Oxo-3-(1-naphthoyl)amino-5-(2-acetamido)acetyl-2,3,4,5-tetrahydro-1H-1,5-benzodiazepine-1-acetylamino]-4-oxo-butyric acid], 150 nM; for `O=C[C@H](CC(=O)O)NC(=O)[C@@H]1CCCN2C(=O)CCN(NC(=O)Cc3ccc4c(c3)OCO4)C(=O)N12` [Compound 1121], 170 nM. On the same count and under the same terms, as for `CC(=O)N1C[C@H](NC(=O)CCc2ccc3c(c2)OCO3)C(=O)N(CC(=O)N[C@H](C=O)CC(=O)O)c2ccccc21` [Compound 707], the figure is 180 nM; as for `CC(=O)N1C[C@H](NC(=O)C(=O)c2ccco2)C(=O)N(CC(=O)N[C@H](C=O)CC(=O)O)c2ccccc21` [Compound 711], 175 nM.

Compound `O=C[C@H](CC(=O)O)NC(=O)[C@@H]1CCCN2C(=O)CCN(NC(=O)CCC3CCCCC3)C(=O)N12` [Compound 1119] returned a Ki of 515 nM. Compound `Cc1cc(C)c(CC(=O)NN2CCC(=O)N3CCC[C@@H](C(=O)N[C@H](C=O)CC(=O)O)N3C2=O)c(C)c1` [Compound 1122] showed a Ki of 400 nM. The same measure, in the same setting: for `O=C[C@H](CC(=O)O)NC(=O)[C@@H]1CCCN2C(=O)CCN(NC(=O)/C=C/c3ccc(Cl)c(Cl)c3)C(=O)N12` [Compound 1115] the value was 250 nM. Compound `O=C[C@H](CC(=O)O)NC(=O)[C@@H]1CCCN2C(=O)CCN(NC(=O)C(=O)c3ccc4c(c3)OCO4)C(=O)N12` [Compound 1109] registered an inhibitory constant (Ki) of 80 nM.

The same assay, now with this note: Table 27.
Compound `O=C[C@H](CC(=O)O)NC(=O)CN1C(=O)[C@@H](NC(=O)c2nccc3ccccc23)CN(C(=O)CO)c2cc(Cl)ccc21` [Compound 696-2, (3S)-3-[(3S)-2-Oxo-3-isoquinolin-1-oylamino-5-hydroxyacetyl-2,3,4,5-tetrahydro-7-chloro-1H-1,5-benzodiazepine-1-acetylamino]-4-oxobutyric acid] came in with an inhibitory constant (Ki) of 0.5 nM. Consider `CC(=O)O[C@@H](C)C(=O)N1C[C@H](NC(=O)c2cc(C)c(O)c(C)c2)C(=O)N(CC(=O)N[C@H](C=O)CC(=O)O)c2ccccc21` [Compound 726], for which the affinity corresponds to a Ki of 300 nM. Same read-out and setting: as for `O=C[C@H](CC(=O)O)NC(=O)CN1C(=O)[C@@H](NC(=O)c2nccc3ccccc23)CN(C(=O)CO)c2cc(F)ccc21` [Compound 696-1, (3S)-3-[(3S)-2-oxo-3-isoquinolin-1-oylamino-5-hydroxyacetyl-2,3,4,5-tetrahydro-7-fluoro-1H-1,5-benzodiazepine-1-acetylamino]-4-oxobutyric acid], the figure is 0.5 nM; as for `CC(=O)N[C@@H](CCC(=O)O)C(=O)N[C@H]1CN(C(=O)CO)c2ccccc2N(CC(=O)N[C@H](C=O)CC(=O)O)C1=O` [Compound 731], 150 nM. In the case of `COC(=O)N1C[C@H](NC(=O)c2ccc(O)c(Cl)c2)C(=O)N(CC(=O)N[C@H](C=O)CC(=O)O)c2ccccc21` [Compound 720], the Ki is 2.7 nM.
